Data published in patent publication US20220152150A1, “MESOPOROUS SILICA PARTICLES COMPOSITIONS FOR VIRAL DELIVERY” (Novartis AG, priority 2019, published 2022).

Test system: EGFRvIII CARTs
Assay: Cytokine production of EGFRvIII CARTs stimulated by ligand-presenting MSRs (multiplex cytokine analysis)
Type: cell-based
Details: lipid-coated MSRs, 1% PE-biotin in the lipid coating; FIG. 8
Experimental: MSRs with surface-immobilized ligands were prepared as described in Cheung, A. S., et al., Scaffolds that mimic antigen-presenting cells enable ex vivo expansion of primary T cells. Nature Biotechnology, 36(2), 160-169.
Briefly, liposomes primarily composed of POPC with 1 mol % PE-biotin were formed using a thin film rehydration method and extrusion through a 100 nm polycarbonate membrane. Hydroxyl functionalized MSRs were incubated with the liposomes to allow the formation of a supported lipid bilayer on the MSR surface (FIG. 6). To functionalize the MSRs with CD3 and CD28 agonistic antibodies, MSRs were washed several times with PBS, incubated with streptavidin, and then tethered with biotinylated CD3 and CD28 antibodies. For MSR-immobilization of EGFRvIII CAR-binding peptides, a biotinylated EGFRvIII CAR-binding peptide was used (FIG. 7). For BCMA CART stimulation, recombinant BCMAFc protein was biotinylated using biotin-NHS and similarly coupled to the MSR surface.
After incubation with the desired ligands, MSRs were washed several times with PBS and resuspended in culture medium at various concentrations and incubated with T cells. T cell proliferation was read out using CFSE labeling of the T cells and assessing dye dilution by flow cytometry. Cytokine production was assessed using a multiplex cytokine analysis method (Mesoscale […] V-Plex).
EGFRvIII CARTs produced interferon gamma and IL-2 in response to EGFRvIII CAR-binding peptide bound to the surface of the MSRs, while free EGFRvIII CAR-binding peptide in solution, a non-stimulating peptide (OVA) presented on the MSRs, or undecorated MSRs gave no response from the CARTs (FIG. 8). In another experiment, the proliferation of EGFRvIII CARTs were monitored in response to various stimuli using cell counting (FIG. 9).

Question: Which results are given for “EGFRvIII CAR-binding peptide bound to the surface of the MSRs: biotinylated EGFRvIII CAR-binding peptide (LEEKKGNYVVTDH, SEQ ID NO: 674) immobilized via streptavidin on lipid-coated MSRs”?
Answer: IL-2 production: produced; interferon gamma production: produced

Question: For “free EGFRvIII CAR-binding peptide: EGFRvIII CAR-binding peptide (LEEKKGNYVVTDH (SEQ ID NO: 674)) free in solution”, which IL-2 production is on record?
Answer: no response

Question: And the interferon gamma production?
Answer: no response
